The source of these data is PMC9412300, “In Vitro Evaluation and Mitigation of Niclosamide’s Liabilities as a COVID-19 Treatment” (Vaccines, 2022).

The IC50 is the concentration that gives 50% inhibition. Broadly, the CC50 is the concentration at which the toxic effect on the cells reaches its halfway point. A lower CC50 goes with greater toxicity to the cells.

Data set [1] concerns SARS-CoV-2 B.1.1.7 variant. The experiment in a line: microbe, parasite or virus in culture. The data set is classed as cell-based. The conditions noted are these: for IC50: read-out: Vero-E6 (B.1.1.7) IC50.
Another data set relates to SARS-CoV-2 WA1 variant. Put plainly: microbe, parasite or virus in culture. The data set is classed as cell-based.
Data set [2] relates to SARS-CoV-2 B.1.1.7 variant. The experiment in a line: microbe, parasite or virus in culture. The data set is classed as cell-based.
Data set [3] is described as follows: Cell viability in VeroE6, shortened 24 h infection assay. The conditions noted are these: African green monkey, VeroE6 cells infected with SARS-CoV-2, CC50 in shortened assay, VeroE6, 1 h preincubation, 24 h infection, top 10 μM.
The test system of data set [4] is SARS-CoV-2 B.1.1.7 variant. The data set is classed as cell-based.
Setting [5] is: Severe acute respiratory syndrome coronavirus 2, NCI-H1437, 48 h.
Setting [6] is: Severe acute respiratory syndrome coronavirus 2, Vero C1008, 48 h.
Setting [7] is: VeroE6, B.1.1.7, 156, 313, 625 nM niclosamide vs viral control.

Where “and” joins values, the source holds several entries; their conditions need not be identical. Equal values may be shown once. Read-outs that look alike come from different tables or passages of the source. A value given as a limit tells only on which side of the number the result lay.

`Cc1cc(NC(=O)c2cc(C(C)(C)C)cc(C(C)(C)C)c2O)ccc1C(=O)O` [Compound 27]: in data set [1], the IC50 was determined as 16.5 µM.

For the molecule `CC(C)(C)c1cc(C(=O)Nc2ccc(C(=O)O)cc2Cl)c(O)c(C(C)(C)C)c1` [Compound 26], the IC50 (in the data set on SARS-CoV-2 WA1 variant (read-out: H1437 (WA1) IC50); in data set [1]) was above 20 µM throughout.

Take `O=C(Nc1ccccc1Cl)c1cc(Cl)ccc1O` [Compound 5]: the IC50 was above 20 µM in the data set on SARS-CoV-2 WA1 variant (read-out: H1437 (WA1) IC50) and 0.89 µM in data set [1].

`O=C(O)c1ccc(NC(=O)c2cc(Cl)ccc2O)c(Cl)c1` [Compound 8]: in the data set with SARS-CoV-2 WA1 variant, the “H1437 (WA1) IC50” value was “Inverted” and the “exacerbation of infection in H1437 (inverted concentration-response curves at high concentrations)” value (from here on “exacerbation of infection in H1437”) is given as “exacerbate infection”. Further, in data set [1], the IC50 is above 20 µM.

In the case of `CC(C)(C)c1ccc(O)c(C(=O)Nc2ccc([N+](=O)[O-])cc2Cl)c1` [Compound 11], the figures for the concentration for half-maximal inhibition (IC50) (in the data set with SARS-CoV-2 WA1 variant (setting [5]); in data set [1] (setting [6])) were 3.1 µM and 0.423 µM, respectively.

As for `COC(=O)c1ccc(NC(=O)c2cc(Cl)ccc2O)c(Cl)c1` [Compound 7], in the data set on SARS-CoV-2 WA1 variant, the “H1437 (WA1) IC50” value is “Inverted” and the “exacerbation of infection in H1437” value was “exacerbate infection”. In data set [1] (setting [6]), the IC50 was 0.334 µM.

With `O=C(Nc1ccc([N+](=O)[O-])cc1Cl)c1ccccc1O` [Compound 2], the IC50 in the data set on SARS-CoV-2 WA1 variant (setting [5]) was 4.92 µM; in data set [1] (setting [6]), 0.296 µM.

Take `Cc1cc(C(=O)O)ccc1NC(=O)c1cc(C(C)(C)C)ccc1O` [Compound 16]: the “H1437 (WA1) IC50” value in the data set on SARS-CoV-2 WA1 variant is given as “Inverted”. Further, in data set [1], the IC50 was above 20 µM.

In the case of `Cc1ccc(O)c(C(=O)Nc2ccc([N+](=O)[O-])cc2Cl)c1` [Compound 3], the IC50 was 2.6 µM in the data set with SARS-CoV-2 WA1 variant (read-out: H1437 (WA1) IC50) and 1.25 µM in data set [1].

As for `COC(=O)c1ccc(NC(=O)c2cc(C(C)(C)C)ccc2O)c(Cl)c1` [Compound 13], the IC50 (in the data set with SARS-CoV-2 WA1 variant (read-out: H1437 (WA1) IC50); in data set [1]) was above 20 µM throughout.

In the case of `CC(C)(C)c1cc(C(=O)Nc2ccc(N)cc2Cl)c(O)c(C(C)(C)C)c1` [Compound 19], the “H1437 (WA1) IC50” value in the data set with SARS-CoV-2 WA1 variant is recorded as “Inverted”. For the same molecule, the IC50 in data set [1] is above 20 µM.

In the case of `CC(C)(C)c1cccc(C(=O)Nc2ccc(C(=O)O)cc2Cl)c1O` [Compound 30], the “H1437 (WA1) IC50” value in the data set on SARS-CoV-2 WA1 variant was “Inverted”. For the same molecule, the IC50 in data set [1] was above 20 µM.

As for `Cc1cc(NC(=O)c2cc(C(C)(C)C)cc(C(C)(C)C)c2O)ccc1C(=O)O` [Compound 20], the IC50 (in the data set with SARS-CoV-2 WA1 variant (read-out: H1437 (WA1) IC50); in data set [1]) was above 20 µM throughout.

In the case of `COC(=O)c1ccc(NC(=O)c2cc(C(F)(F)F)ccc2O)c(C)c1` [Compound 23], the IC50 (with SARS-CoV-2 WA1 variant (read-out: H1437 (WA1) IC50); in data set [1]) was above 20 µM each time.

With `O=C(Nc1ccc(Br)cc1Cl)c1cc(Cl)ccc1O` [Compound 34], the IC50 came out at 3.49 µM in the data set with SARS-CoV-2 WA1 variant (read-out: H1437 (WA1) IC50) and 0.76 µM in data set [1].

Consider `COc1ccc(NC(=O)c2cc(Cl)ccc2O)c(Cl)c1` [Compound 10], for which, in the data set with SARS-CoV-2 WA1 variant, the “H1437 (WA1) IC50” value is given as “Inverted” and the “exacerbation of infection in H1437” value was “exacerbate infection”. In addition, the IC50 in data set [1] was determined as 4.25 µM.

`CC(C)(C)c1cccc(C(=O)Nc2ccc(N)cc2Cl)c1O` [Compound 32]: the IC50 (in the data set with SARS-CoV-2 WA1 variant (read-out: H1437 (WA1) IC50); in data set [1]) was above 20 µM each time.

Take `Cc1ccc(NC(=O)c2cc(Cl)ccc2O)c(Cl)c1` [Compound 6]: the IC50 is above 20 µM in the data set on SARS-CoV-2 WA1 variant (read-out: H1437 (WA1) IC50) and 0.76 µM in data set [1].

With `COC(=O)c1ccc(NC(=O)c2cc(C3CCCCC3)ccc2O)c(Cl)c1` [Compound 21], the values for the IC50 (with SARS-CoV-2 WA1 variant (read-out: H1437 (WA1) IC50); in data set [1]) were above 20 µM and 9.91 µM, respectively.

On to `O=C(Nc1ccc([N+](=O)[O-])cc1Cl)c1cccc(Cl)c1` [Compound 9], for which the “H1437 (WA1) IC50” value with SARS-CoV-2 WA1 variant is on record as “complete loss of activity”. The IC50 (with SARS-CoV-2 WA1 variant (setting [5]); in data set [1] (setting [6])) was above 20 µM throughout. Also, the “Vero-E6 (B.1.1.7) IC50” value in data set [1] is “complete loss of activity”.

For the molecule `O=C(Nc1ccc([N+](=O)[O-])cc1Cl)c1cc(Cl)ccc1O` [Niclosamide], the IC50 in the data set on SARS-CoV-2 WA1 variant (setting [5]) is 16.8 µM; in data set [2] (Severe acute respiratory syndrome coronavirus 2, NCI-H1437), 0.261 µM; in data set [1] (setting [6]), 0.564 µM. In addition, the “selectivity index (CC50/IC50), H1437” value in data set [2] is 1.67 and < 2. Moreover, in data set [1], the “selectivity index (CC50/IC50), VeroE6” value was 1.86 and < 2. In data set [3], the half-maximal cytotoxic concentration (CC50) at 25 h was above 10 µM. The “maximum size of syncytia (max area of viral objects)” value in data set [4] (setting [7]) is “decreased”. The “number of individually infected cells within a well (viral objects per well)” value in data set [4] (setting [7]) is listed as “reduced”. The “N protein intensity of remaining viral objects” value in data set [4] (VeroE6, B.1.1.7, escalating concentrations 156, 313, 625 nM) was “increased”.

Regarding `CC(C)(C)c1ccc(O)c(C(=O)Nc2ccc(C(=O)O)cc2Cl)c1` [Compound 14], the “H1437 (WA1) IC50” value with SARS-CoV-2 WA1 variant is listed as “Inverted”. The IC50 in data set [1] is above 20 µM.

For the molecule `COc1ccc(O)c(C(=O)Nc2ccc([N+](=O)[O-])cc2Cl)c1` [Compound 4], the IC50 in the data set with SARS-CoV-2 WA1 variant (read-out: H1437 (WA1) IC50) was determined as 10.9 µM; in data set [1] it was 1.77 µM.

On to `CC(C)(C)c1cccc(C(=O)Nc2ccc([N+](=O)[O-])cc2Cl)c1O` [Compound 31], for which the IC50 (in the data set on SARS-CoV-2 WA1 variant (read-out: H1437 (WA1) IC50); in data set [1]) was above 20 µM each time.

Take `CC(C)(C)c1cccc(C(=O)Nc2ccc(NS(C)(=O)=O)cc2Cl)c1O` [Compound 33]: in the data set with SARS-CoV-2 WA1 variant, the “H1437 (WA1) IC50” value is given as “Inverted” and the “exacerbation of infection in H1437” value is “exacerbate infection”. For the same molecule, the IC50 in data set [1] turned out to be 2.88 µM.

Take `O=C(O)c1ccc(NC(=O)c2cc(C3CCCCC3)ccc2O)c(Cl)c1` [Compound 22]: in the data set with SARS-CoV-2 WA1 variant, the “H1437 (WA1) IC50” value is “Inverted” and the “exacerbation of infection in H1437” value is given as “exacerbate infection”. In addition, in data set [1], the IC50 worked out at 4.51 µM.

Take `COC(=O)c1ccc(NC(=O)c2cccc(C(C)(C)C)c2O)c(Cl)c1` [Compound 25]: in the data set on SARS-CoV-2 WA1 variant, the “H1437 (WA1) IC50” value is reported as “Inverted” and the “exacerbation of infection in H1437” value is listed as “exacerbate infection”. For the same molecule, the IC50 in data set [1] was above 20 µM.

Take `CC(C)(C)c1cc(C(=O)Nc2ccc(NS(C)(=O)=O)cc2Cl)c(O)c(C(C)(C)C)c1` [Compound 18]: the “H1437 (WA1) IC50” value in the data set with SARS-CoV-2 WA1 variant was “Inverted”. Besides, the IC50 in data set [1] is above 20 µM.

As for `COc1ccc(O)c(C(=O)Nc2ccc([N+](=O)[O-])cc2Cl)c1` [Compound 12], the values for the IC50 (with SARS-CoV-2 WA1 variant (read-out: H1437 (WA1) IC50); in data set [1]) were 16.9 µM and 1.5 µM, respectively.

For `N#Cc1ccc(NC(=O)c2cc(Cl)ccc2O)c(Cl)c1` [Compound 24], the IC50 worked out at 1.07 µM with SARS-CoV-2 WA1 variant (setting [5]) and 0.348 µM in data set [1] (setting [6]).

`CC(C)(C)c1ccc(O)c(C(=O)Nc2ccc(C(=O)O)cc2F)c1` [Compound 15]: in the data set on SARS-CoV-2 WA1 variant, the “H1437 (WA1) IC50” value is given as “Inverted”. The IC50 in data set [1] was above 20 µM.

With `COc1ccc(O)c(C(=O)Nc2ccc(C(=O)O)cc2C)c1` [Compound 28], the “H1437 (WA1) IC50” value with SARS-CoV-2 WA1 variant was “Inverted”. The IC50 in data set [1] is above 20 µM.
